Publication PMC10056443, “Derivatives of Amaryllidaceae Alkaloid Ambelline as Selective Inhibitors of Hepatic Stage of Plasmodium berghei Infection In Vitro” (Pharmaceutics, 2023)
Read-outs that look alike come from different tables or passages of the source.

What was measured:
Huh-7 cell line = assay: Huh-7 cell confluency by alamarBlue assay during hepatic-stage test; assay type: cell-based
Experimental: (§1) Activity against the hepatic stage of P. berghei infection was assessed using the human hepatoma cell line Huh-7 (deposited at the Japanese Collection of Research Bioresources under JCRB0403). The protocol was previously comprehensively described by Prudêncio et al. and by Ploemen et al.. Briefly, cell culture medium consisted of 1640 RPMI medium supplemented with 10% v/v fetal calf serum, 1% v/v L-glutamine, 1% v/v nonessential amino acids, 1% v/v penicillin/streptomycin, and 10 mM HEPES, pH 7. Cells were seeded in 96-well plates at a density of 1 × 10^4 cells per well in 100 µL of culture medium and incubated at 37 °C with 5% CO2 for approximately 18 h. […] The culture medium was substituted by infection medium with diluted compounds 1 hour in advance of infection. Luciferase-expressing P. berghei sporozoites (PbA-LuciGFPcon spz) were freshly obtained through the dissection of salivary glands from infected female Anopheles stephensi mosquitoes. Sporozoites were added to the cells at 1:1 ratio, i.e., 1 × 10^4 sporozoites were added per well, and then subjected to centrifugation at 1800× g for 5 min. The plate was then incubated for 46 h at 37 °C with 5% CO2, at which time Huh-7 cell confluency was indirectly assessed by the alamarBlue assay (Invitrogen, Waltham, MA, USA), as reported in the manufacturer’s protocol. Parasite load was assessed 48 h post-infection by a bioluminescence assay, as reported by the manufacturer (Biotium, Fremont, CA, USA). GraphPad Prism 8 (GraphPad Software, Inc., La Jolla, CA, USA) was used to obtain IC50 values using nonlinear regression analysis to fit the dose-response curves normalized results.

[1] = Cytotoxicity assessment in vitro (MTT assay); assay type: cell-based; details: human
Experimental: (§2) HepG2 cells of human hepatocellular carcinoma (ATCC HB-8065; passage 20–25), purchased from Health Protection Agency Culture Collections (ECACC, Salisbury, UK), were cultured in Minimum Essential Medium Eagle supplemented with 10% v/v fetal bovine serum and 1% v/v L-glutamine solution (Sigma-Aldrich, St. Louis, MO, USA) at 37 °C in a humidified atmosphere containing 5% CO2. For passaging, the cells were treated with trypsin/EDTA (Sigma-Aldrich, St. Louis, MO, USA) at 37 °C and then harvested. For the cytotoxicity evaluation, the cells treated with the test substances were used, while untreated HepG2 cells served as a control group. The cells were seeded in a 96-well plate at a density of 1 × 10^4 cells per well and incubated for 24 h. All tested compounds were dissolved in DMSO to prepare 10 mM stock solutions and diluted to the desired concentration just before the cell treatment. Cytotoxicity of all studied derivatives was screened at 10 μM concentration, and all samples were measured in triplicates. Positive and negative controls were also included. Plates were incubated for 24 h in a humidified atmosphere containing 5% CO2 at 37 °C. After the incubation, a solution of thiazolyl blue tetrazolium bromide (Sigma-Aldrich, St. Louis, MO, USA) in RPMI 1640 medium without phenol red (BioTech, Prague, Czech Republic) was added and incubated for 3 h in a humidified atmosphere containing 5% CO2 at 37 °C. Afterwards, formazan crystals were dissolved in DMSO, and the absorbance of samples was recorded at 570 nm (Synergy Neo2 Multi-Mode Reader NEO2SMALPHAB; BioTek, Winooski, VT, USA).

HepG2 cells = assay: Cytotoxicity assessment in vitro (MTT assay); assay type: cell-based
Experimental: as §2

[2] = system: hepatic stage of P. berghei; assay: In vitro activity against P. berghei hepatic stages (luciferase-expressing sporozoites in Huh-7 cells, bioluminescence); assay type: cell-based, Plasmodium berghei; details: for activity at 1 µM / activity at 10 µM / IC50: Plasmodium berghei; for activity at 1 µM / activity at 10 µM: Huh-7, 48 h, DMSO = 100, read-out: INFECTION Ø screening
Experimental: as §1, with “Briefly, cell culture medium consisted of 1640 RPMI medium supplemented with 10% v/v fetal calf serum, 1% v/v L-glutamine, 1% v/v nonessential amino acids, 1% v/v penicillin/streptomycin, and 10 mM HEPES, pH 7.” left out

[3] = system: P. falciparum NF54 ring-stage synchronized cultures; assay: In vitro activity against P. falciparum blood stages (flow cytometry, SYBR green I); assay type: cell-based, Plasmodium falciparum; details: Control = 7.76333, 48 h
Experimental: Activity against the blood stage of P. falciparum infection was assessed by flow cytometry analysis following the incubation of either test compounds or the drug vehicle (DMSO) with ring-stage synchronized parasite cultures, as previously described. Stock solutions of the test compounds, as well as of the positive control compound chloroquine, were prepared in DMSO and diluted to test concentrations in complete malaria culture medium (CMCM), i.e., 1640 RPMI medium supplemented with 25 mM HEPES, 2.4 mM L-glutamine, 50 µg/mL gentamicin, 0.5% w/v Albumax, 11 mM glucose, 1.47 mM hypoxanthine, and 37.3 mM NaHCO3. Samples at tested concentration were then incubated with ring-stage synchronized cultures of P. falciparum NF54 at 2.5% hematocrit and at approximately 1% parasitemia in 96-well plates at 37 °C in a 5% CO2 and 5% O2 atmosphere. Forty-eight hours post incubation, parasite load was assessed by flow cytometry, upon staining with the DNA-specific dye SYBR green I. Approximately 100,000 events were analyzed in each flow cytometry measurement.

[4] = Huh-7, mean, unit (Table 1: µM), read-out: Antiplasmodial activity - Ø IC50
[5] = Huh-7, replicate 1, unit (Table 1: µM), read-out: Antiplasmodial activity - IC50 determination, 1. measurement
[6] = Huh-7, replicate 2, unit (Table 1: µM), read-out: Antiplasmodial activity - IC50 determination, 2. measurement
[7] = Huh-7, replicate 3, unit (Table 1: µM), read-out: Antiplasmodial activity - IC50 determination, 3. measurement
[8] = hepatic stage, Huh-7 cells, parasite load 48 h post-infection, read-out: IC50 P. berghei

SMILES	CELL CONFLUENCY Ø screening (Huh-7 cell line; human, 46 h, 1 µM, pH 7)	CELL CONFLUENCY Ø screening (Huh-7 cell line; human, 46 h, 10 µM, pH 7)	viability at 24 h, 10 µM [1]	1. screening of cytotoxic potential, HepG2 cell line (HepG2 cells; human, 24 h, 10 µM)	2. screening of cytotoxic potential, HepG2 cell line (HepG2 cells; human, 24 h, 10 µM)	3. screening of cytotoxic potential, HepG2 cell line (HepG2 cells; human, 24 h, 10 µM)	Ø screening, HepG2 (sheet Graphs) (HepG2 cells; human, 24 h, 10 µM)	activity at 1 µM [2]	activity at 10 µM [2]	Ø screening, blood stage parasite load ([3]; at 10 nM)	Ø screening, blood stage parasite load ([3]; at 500 nM)	Ø screening, blood stage parasite load ([3]; at 100 nm)	IC50 [2, 4]	IC50 [2, 5]	IC50 [2, 6]	IC50 [2, 7]	IC50 [2, 8]	further results
COc1c2c(cc3c1OCO3)[C@]13C=C[C@H](OC)C[C@H]1N(C2)C[C@H]3OC(=O)c1ccc([N+](=O)[O-])cc1Cl [28s, 11-O-(2-Chloro-4-nitrobenzoyl)ambelline]	95.79	77.1	54 ± 6%	55.56	46.62	58.6	53.59	48.2%	1.4%	7.46	7.523	7.653						activity against P. berghei hepatic stages ([2]; screening at 10 and 1 µM / IC50 determination): not dose-dependent
COc1c2c(cc3c1OCO3)[C@]13C=C[C@H](OC)C[C@H]1N(C2)C[C@H]3OC(=O)c1cc(C)cc(C)c1 [28h, 11-O-(3,5-Dimethylbenzoyl)ambelline]								8.82%	0.852%	8.137	6.735	6.763	0.1 µM	0.0992 µM	0.0828 µM	0.118 µM	0.1 ± 0.018 µM	CELL CONFLUENCY Ø screening (Huh-7 cell line; at 1 μM, DMSO = 100, in % (unit assumed)): 93.78; CELL CONFLUENCY Ø screening (Huh-7 cell line; at 10 μM, DMSO = 100, in % (unit assumed)): 54.73; viability at 24 h, 10 µM ([1]; c = 10 µM, 24 h, MTT, read-out: HepG2 % of cell viability compared to non-treated control (100%)): 74 ± 13%; Ø screening, HepG2 (sheet Graphs) (HepG2 cells; c = 10 μM, DMSO = 100, in %): 74.24; 1. screening of cytotoxic potential, HepG2 cell line (HepG2 cells; c = 10 μM, replicate 1, in %): 61.45; 2. screening of cytotoxic potential, HepG2 cell line (HepG2 cells; c = 10 μM, replicate 2, in %): 88.22; 3. screening of cytotoxic potential, HepG2 cell line (HepG2 cells; c = 10 μM, replicate 3, in %): 73.05
COc1c2c(cc3c1OCO3)[C@]13C=C[C@H](OC)C[C@H]1N(C2)C[C@H]3OC(=O)c1cccc([N+](=O)[O-])c1 [28p, 11-O-(3-Nitrobenzoyl)ambelline]	87.05	79.58	75 ± 6%	70.36	72.83	81.93	75.04	48.1%	1.45%	4.593	4.517	4.83	1.53 µM	1.46 µM	1.36 µM	1.78 µM	1.53 ± 0.22 µM	
CCC(=O)O[C@@H]1CN2Cc3c(cc4c(c3OC)OCO4)[C@@]13C=C[C@H](OC)C[C@@H]23 [28b, 11-O-Propionylambelline]	98.41	102.4	58 ± 4%	62.58	57.25	55.25	58.36	77.6%	64.5%	8.397	7.243	7.813					> 10 µM	
COc1c2c(cc3c1OCO3)[C@]13C=C[C@H](OC)C[C@H]1N(C2)C[C@H]3OC(=O)c1ccc(C)cc1 [28g, 11-O-(4-Methylbenzoyl)ambelline]	89.36	93.96	50 ± 6%	50.18	56.25	43.46	49.96	23.1%	0.21%	5.187	4.26	4.963	0.402 µM	0.345 µM	0.46 µM		0.402 ± 0.081 µM	
COc1c2c(cc3c1OCO3)[C@]13C=C[C@H](OC)C[C@H]1[N@](C2)C[C@H]3OC(C)=O [28a, 11-O-Acetylambelline]	94.22	93.33	107 ± 3%	104.06	105.26	110.57	106.6	79.5%	64.4%	7.817	11.5	10.27					> 10 µM	
